The source of these data is US12649750B2, “Macrocyclic compounds, compositions, and methods of using thereof” (Sionna Therapeutics Inc., priority 2022, dated 2026).

The target in assay [1] is T1, CFTR (Homo sapiens, UniProt P13569, DEL508-508).
T1 construct: Primary human bronchial epithelial cells from a ΔF508 homozygous CF donor; host or cells: primary human bronchial epithelial cells (CF-HBE), ΔF508 homozygous donor
Briefly: TECC24 AUC fold over DMSO @10 μM, CFTR-mediated transepithelial chloride transport in CF-HBE cells. The class given is cell-based. Conditions: test agent AUC divided by DMSO vehicle AUC, primary CF-HBE cells, ΔF508 homozygous donor, 48 hours incubation. Summed up:
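Value is ratio of test-agent to DMSO AUC of equivalent transepithelial Cl− current, integrated from forskolin (10 μM) stimulation to CFTR inhibitor-172 (20 μM) block, with benzamil 10 μM present. CF-HBE (ΔF508/ΔF508) cultures had 48 h compound exposure at 10 μM, 36.5° C before recording.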

Assay [2] addresses T2, NBD1 (Homo sapiens, UniProt P13569).
T2 construct: Purified recombinant NBD1 was produced using previously described methods; made in house
Description: Aggregation analysis using differential static light scattering (DSLS), thermal stability of NBD1 (ΔTagg). In kind it is binding. Conditions: ΔTagg versus DMSO control, NBD1 0.2 mg/ml. Summed up: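 Differential static light scattering read from 25° C. to 70° C. every 0.5° C., ramp 1° C./min, on recombinant NBD1 (0.2 mg/ml; Tris/NaCl/MgCl2 buffer with 2 mM ATP, 2 mM DTT, pH 7.6, 1% glycerol) plus compound. Reported ΔTagg subtracts averaged DMSO Tagg from inflection-point Tagg; categories A ≤5, B >5-10, C >10-25° C.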

T1 sequence (P13569 with tags, fused parts or gaps DEL508-508): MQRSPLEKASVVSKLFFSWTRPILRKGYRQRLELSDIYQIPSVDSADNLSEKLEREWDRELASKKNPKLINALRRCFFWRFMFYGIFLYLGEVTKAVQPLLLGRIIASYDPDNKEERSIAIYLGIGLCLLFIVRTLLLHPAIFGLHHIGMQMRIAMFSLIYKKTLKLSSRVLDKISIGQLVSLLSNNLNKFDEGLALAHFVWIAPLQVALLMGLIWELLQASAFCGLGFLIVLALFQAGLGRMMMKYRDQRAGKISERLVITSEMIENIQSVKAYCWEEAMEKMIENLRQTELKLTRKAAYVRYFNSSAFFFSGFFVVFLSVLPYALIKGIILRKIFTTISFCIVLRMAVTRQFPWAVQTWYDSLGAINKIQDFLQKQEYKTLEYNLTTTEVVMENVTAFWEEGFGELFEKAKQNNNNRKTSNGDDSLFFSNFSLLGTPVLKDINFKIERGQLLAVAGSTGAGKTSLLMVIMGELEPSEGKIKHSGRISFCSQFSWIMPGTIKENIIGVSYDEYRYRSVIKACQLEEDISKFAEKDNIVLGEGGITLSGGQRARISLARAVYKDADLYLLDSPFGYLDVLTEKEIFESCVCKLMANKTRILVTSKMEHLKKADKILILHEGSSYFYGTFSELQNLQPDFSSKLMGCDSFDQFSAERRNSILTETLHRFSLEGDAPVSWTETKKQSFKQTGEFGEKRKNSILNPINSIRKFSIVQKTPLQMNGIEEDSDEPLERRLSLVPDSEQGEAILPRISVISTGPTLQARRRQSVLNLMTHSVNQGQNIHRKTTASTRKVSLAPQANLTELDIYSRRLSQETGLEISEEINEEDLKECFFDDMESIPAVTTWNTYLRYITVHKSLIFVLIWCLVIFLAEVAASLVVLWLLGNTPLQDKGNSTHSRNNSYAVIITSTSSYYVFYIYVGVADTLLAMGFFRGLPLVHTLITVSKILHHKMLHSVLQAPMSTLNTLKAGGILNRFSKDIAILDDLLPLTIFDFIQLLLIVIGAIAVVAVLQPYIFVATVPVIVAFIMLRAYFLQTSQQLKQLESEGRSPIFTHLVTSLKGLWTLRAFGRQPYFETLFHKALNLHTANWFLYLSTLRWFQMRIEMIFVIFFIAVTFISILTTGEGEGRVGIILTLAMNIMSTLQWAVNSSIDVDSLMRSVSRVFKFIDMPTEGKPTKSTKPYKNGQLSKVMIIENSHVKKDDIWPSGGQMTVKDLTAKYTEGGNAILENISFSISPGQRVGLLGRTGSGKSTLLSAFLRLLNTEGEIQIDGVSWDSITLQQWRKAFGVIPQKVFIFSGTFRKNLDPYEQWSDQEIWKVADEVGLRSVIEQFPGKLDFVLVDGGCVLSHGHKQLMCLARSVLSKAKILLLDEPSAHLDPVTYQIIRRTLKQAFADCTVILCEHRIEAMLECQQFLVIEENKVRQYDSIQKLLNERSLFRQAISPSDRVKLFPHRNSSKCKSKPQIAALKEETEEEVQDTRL
T2 sequence (P13569 423-646 limits assumed): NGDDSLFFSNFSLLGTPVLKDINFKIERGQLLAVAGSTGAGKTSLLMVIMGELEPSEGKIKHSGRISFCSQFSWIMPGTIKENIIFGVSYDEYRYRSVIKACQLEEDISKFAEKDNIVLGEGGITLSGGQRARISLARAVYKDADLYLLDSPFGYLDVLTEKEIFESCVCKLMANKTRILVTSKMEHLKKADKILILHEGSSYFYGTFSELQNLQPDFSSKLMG

With `Cn1nc2nc1-c1cc(ccc1F)Oc1c(F)cc3[nH]ccc3c1CCS(=O)(=O)CC(C)(C)CCCC2(C)c1cccc(CC2(C(=O)O)CC2)c1` (stereo not drawn) [Compound 14, 1-[[3-(22,28-difluoro-3,6,10,10-tetramethyl-12,12-dioxo-24-oxa-12lambda6-thia-3,4,19,30-tetrazapentacyclo[23.3.1.12,5.015,23.016,20]triaconta-1(29),2(30),4,15,17,20,22,25,27-nonaen-6-yl)phenyl]methyl]cyclopropanecarboxylic Acid], the “TECC (AUC, 10 μM)” value in assay [1] is on record as “B (a value between 12-20 is marked “B”)”. Also, the “DSLS 3D (100 μM ΔT)” value in assay [2] is “C (a value greater than 10 °C and less than or equal to 25 °C is marked “C”)”.
On to `Cn1nc2nc1-c1cc(ccc1F)Oc1c(F)cc3[nH]ccc3c1CCS(=O)(=O)CC(C)(C)CCCC2(C)c1cccc(CC(O)C(=O)O)c1` (single isomer, unassigned) [Compound 134B, 3-[3-(22,28-Difluoro-3,6,10,10-tetramethyl-12,12-dioxo-24-oxa-12λ6-thia-3,4,19,30-tetrazapentacyclo-[23.3.1.12,5.015,23.016,20]-triaconta-1(29),2(30),4,15,17,20,22,25,27-nonaen-6-yl)phenyl]-2-hydroxy-propanoic Acid], for which the “TECC (AUC, 10 μM)” value in assay [1] is reported as “A (a TECC value less than 12 is marked “A”)”. Also, the “DSLS 3D (100 μM ΔT)” value in assay [2] was “A (an ΔTagg value less than or equal to 5 °C is marked “A”)”.
In the case of `C[C@@H](Cc1cccc(C2(C)CCCC(C)(C)CS(=O)(=O)CCc3c(c(F)cc4[nH]ccc34)[S+]([O-])c3ccc(F)c(c3)-c3nc2nn3C)n1)C(=O)O` (single isomer, unassigned) [Compound 179D], in assay [1], the “TECC (AUC, 10 μM)” value is reported as “A (a TECC value less than 12 is marked “A”)”. Also, the “DSLS 3D (100 μM ΔT)” value in assay [2] is “A (an ΔTagg value less than or equal to 5 °C is marked “A”)”.
For the compound `Cn1nc2nc1-c1cc(ccc1F)[S+]([O-])c1c(F)c(F)c3[nH]ccc3c1CCS(=O)(=O)CC(C)(C)CCC[C@]2(C)c1cccc(CC(C)(C)C(=O)O)c1` (stereo partly drawn) [Compound 280, 2,2-dimethyl-3-[3-[(6R)-21,22,28-trifluoro-3,6,10,10-tetramethyl-12,12,24-trioxo-12λ6,24λ4-dithia-3,4,19,30-tetrazapentacyclo[23.3.1.12,5.015,23.016,20]triaconta-1(29),2(30),4,15,17,20,22,25,27-nonaen-6-yl]phenyl]propanoic Acid], in assay [1], the “TECC (AUC, 10 μM)” value was “C (a value between 20 and 80 is marked “C”)”. In addition, the “DSLS 3D (100 μM ΔT)” value in assay [2] was “C (a value greater than 10 °C and less than or equal to 25 °C is marked “C”)”.
For the compound `CC1(C)CSCc2c(c(F)cc3[nH]ccc23)Oc2ccc(F)c(c2)-c2nc(c[nH]2)C(C)(c2cccc(CCC(=O)O)c2)CCCO1` (stereo not drawn) [Compound 46, 3-[3-(22,28-difluoro-6,11,11-trimethyl-10,24-dioxa-13-thia-3,19,30-triazapentacyclo[23.3.1.12,5.015,23.016,20]triaconta-1(29),2(30),4,15,17,20,22,25,27-nonaen-6-yl)phenyl]propanoic Acid], in assay [1], the “TECC (AUC, 10 μM)” value was “C (a value between 20 and 80 is marked “C”)”. Also, the “DSLS 3D (100 μM ΔT)” value in assay [2] was “C (a value greater than 10 °C and less than or equal to 25 °C is marked “C”)”.
Consider `CC(Cc1cccc(C2(C)CCC(=O)C(C)(C)CS(=O)(=O)CCc3c(c(F)cc4[nH]ccc34)Oc3ccc(F)c(c3)-c3nc2nn3C)c1)C(=O)O` (single isomer, unassigned) [Compound 11B, 3-[3-[22,28-difluoro-3,6,10,10-tetramethyl-9,12,12-trioxo-24-oxa-12lambda6-thia-3,4,19,30-tetrazapentacyclo[23.3.1.12,5.015,23.016,20]triaconta-1(29),2(30),4,15,17,20,22,25,27-nonaen-6-yl]phenyl]-2-methyl-propanoic Acid], for which the “TECC (AUC, 10 μM)” value in assay [1] was “A (a TECC value less than 12 is marked “A”)”. Also, the “DSLS 3D (100 μM ΔT)” value in assay [2] is “A (an ΔTagg value less than or equal to 5 °C is marked “A”)”.
In the case of `Cn1nc2nc1-c1cc(ccc1F)Oc1c(F)cc3[nH]ccc3c1Cc1ccn(n1)CCS(=O)(=O)CCC2(C)c1cccc(CCC(=O)O)c1` (single isomer, unassigned) [Compound 100A, 3-[3-(24,30-difluoro-3,6-dimethyl-9,9-dioxo-26-oxa-9λ6-thia-3,4,12,21,32,33-hexazahexacyclo[25.3.1.12,5.112,15.017,25.018,22]tritriaconta-1(31),2(33),4,13,15(32),17,19,22,24,27,29-undecaen-6-yl)phenyl]propanoic Acid], the “TECC (AUC, 10 μM)” value in assay [1] is “A (a TECC value less than 12 is marked “A”)”. In assay [2], the “DSLS 3D (100 μM ΔT)” value was “C (a value greater than 10 °C and less than or equal to 25 °C is marked “C”)”.
For the compound `CCOC(=O)C(Cc1cccc(C2(C)CCCC(C)(C)CS(=O)(=O)CCc3c(c(F)cc4[nH]ccc34)Oc3ccc(F)c(c3)-c3nc2nn3C)c1)C(F)F` (stereo not drawn) [Compound 131, Ethyl 2-[[3-(22,28-difluoro-3,6,10,10-tetramethyl-12,12-dioxo-24-oxa-12λ6-thia-3,4,19,30-tetrazapentacyclo[23.3.1.12,5.015,23.016,20]triaconta-1(29),2(30),4,15,17,20,22,25,27-nonaen-6-yl)phenyl]methyl]-3,3-difluoro-propanoate], in assay [1], the “TECC (AUC, 10 μM)” value was “B (a value between 12-20 is marked “B”)”. Further, in assay [2], the “DSLS 3D (100 μM ΔT)” value was “A (an ΔTagg value less than or equal to 5 °C is marked “A”)”.
Consider `Cn1nc2nc1-c1cc(ccc1F)Oc1c(F)cc3[nH]ccc3c1CCS(=O)(=O)CC(C)(C)CCCC2(C)c1cccc(/C=C2\NC(=O)NC2=O)c1` (racemic) [Compound 174, (5Z)-5-[[3-(22,28-Difluoro-3,6,10,10-tetramethyl-12,12-dioxo-24-oxa-12λ6-thia-3,4,19,30-tetrazapentacyclo[23.3.1.12,5.015,23.016,20]-triaconta-1(29),2(30),4,15,17,20,22,25,27-nonaen-6-yl)phenyl]methylene]imidazolidine-2,4-dione], for which, in assay [1], the “TECC (AUC, 10 μM)” value is “A (a TECC value less than 12 is marked “A”)”. Besides, the “DSLS 3D (100 μM ΔT)” value in assay [2] was “C (a value greater than 10 °C and less than or equal to 25 °C is marked “C”)”.
With `C[C@H](Cc1cccc(C2(C)CCCC(C)(C)CS(=O)(=O)CCc3c(c(F)cc4[nH]ccc34)[S+]([O-])c3ccc(F)c(c3)-c3nc2nn3C)n1)C(=O)O` (single isomer, unassigned) [Compound 181B], in assay [1], the “TECC (AUC, 10 μM)” value is “A (a TECC value less than 12 is marked “A”)”. For the same compound, in assay [2], the “DSLS 3D (100 μM ΔT)” value was “A (an ΔTagg value less than or equal to 5 °C is marked “A”)”.
In the case of `CC1(C)CCCC(c2cccc(CCC(=O)O)c2)n2ccc(n2)-c2cc(ccc2F)Oc2c(F)cc3[nH]ccc3c2CCS(=O)(=O)C1` (single isomer, unassigned) [Compound 24A, 3-[3-[22,28-difluoro-10,10-dimethyl-12,12-dioxo-24-oxa-12lambda6-thia-5,19,30-triazapentacyclo[23.3.1.12,5.015,23.016,20]triaconta-1(29),2(30),3,15,17,20,22,25,27-nonaen-6-yl]phenyl]propanoic Acid], the “TECC (AUC, 10 μM)” value in assay [1] is “A (a TECC value less than 12 is marked “A”)”. In assay [2], the “DSLS 3D (100 μM ΔT)” value was “B (a value above 5 °C and less than or equal to 10 °C is marked “B”)”.
With `Cn1nc2nc1-c1cc(ccc1F)Oc1c(F)cc3[nH]cnc3c1CCS(=O)(=O)CC(C)(C)CCCC2(C)c1cccc(CCC(=O)O)c1` (stereo not drawn) [Compound 116, 3-[3-(22,28-Difluoro-3,6,10,10-tetramethyl-12,12-dioxo-24-oxa-12λ6-thia-3,4,17,19,30-pentazapentacyclo[23.3.1.12,5.015,23.016,20]triaconta-1(29),2(30),4,15,17,20,22,25,27-nonaen-6-yl)phenyl]propanoic Acid], the “TECC (AUC, 10 μM)” value in assay [1] was “A (a TECC value less than 12 is marked “A”)”. Moreover, the “DSLS 3D (100 μM ΔT)” value in assay [2] was “C (a value greater than 10 °C and less than or equal to 25 °C is marked “C”)”.
For the compound `C[C@@H](Cc1cccc([C@@]2(C)CCCC(C)(C)CS(=O)(=O)CCc3c(c(F)cc4[nH]ccc34)[S+]([O-])c3ccc(F)c(c3)-c3nc2nn3C)c1)C(=O)O` (single isomer, unassigned) [Compound 205], in assay [1], the “TECC (AUC, 10 μM)” value is “A (a TECC value less than 12 is marked “A”)”. Moreover, the “DSLS 3D (100 μM ΔT)” value in assay [2] is “B (a value above 5 °C and less than or equal to 10 °C is marked “B”)”.
With `CC1(C)CCCC(c2cccc(CC(=O)O)c2)n2ccc(n2)-c2cc(ccc2F)Oc2c(F)cc3[nH]ccc3c2CCS(=O)(=O)C1` (stereo not drawn) [Compound 26, 2-[3-(22,28-Difluoro-10,10-dimethyl-12,12-dioxo-24-oxa-12lambda6-thia-5,19,30-triazapentacyclo[23.3.1.12,5.015,23.016,20]triaconta-1(29),2(30),3,15,17,20,22,25,27-nonaen-6-yl)phenyl]acetic Acid], the “TECC (AUC, 10 μM)” value in assay [1] is “C (a value between 20 and 80 is marked “C”)”. For the same compound, the “DSLS 3D (100 μM ΔT)” value in assay [2] is “C (a value greater than 10 °C and less than or equal to 25 °C is marked “C”)”.
Consider `Cn1nc2nc1-c1cc(ccc1F)C(O)c1c(F)cc3[nH]ccc3c1CCS(=O)(=O)CC(C)(C)CCCC2(C)c1cccc(CCC(=O)O)c1` (single isomer, unassigned) [Compound 30B, 3-[3-(22,28-difluoro-24-hydroxy-3,6,10,10-tetramethyl-12,12-dioxo-12lambda6-thia-3,4,19,30-tetrazapentacyclo[23.3.1.12,5.015,23.016,20]triaconta-1(29),2(30),4,15,17,20,22,25,27-nonaen-6-yl)phenyl]propanoic acid], for which, in assay [1], the “TECC (AUC, 10 μM)” value was “B (a value between 12-20 is marked “B”)”. The “DSLS 3D (100 μM ΔT)” value in assay [2] was “B (a value above 5 °C and less than or equal to 10 °C is marked “B”)”.
